Here are results for four compounds from article PMC5625163, “Incompatibility of chemical protein synthesis inhibitors with accurate measurement of extended protein degradation rates” (Pharmacology Research & Perspectives, 2017).

The structures appear in SMILES notation. Counter-ions that a name gives are not always drawn. Like-named read-outs stand apart in the source and are kept apart here. Starred links: 1 amine or outer side, 2 acyl side, 3 side chain; linkers in the order of their positions; H or OH if unused. Positions of bridges follow the written chain, without caps; N, C: chain ends. Non-standard residues stand in square brackets, D forms with d. Residues, ends and D or L forms follow the SMILES beside them. Chains are numbered I, II in the order given. Actinocin(9to1) = Cc1c2oc3c(C)ccc(C(=O)[*:1])c3nc-2c(C(=O)[*:2])c(N)c1=O; NMeV = CN[C@H](C(=O)O)C(C)C; Sar = CNCC(=O)O

A short description of series [1]: Standard MTT cell viability assay in primary rat hepatocytes. In kind it is cell-based. The settings on record: male, Sprague-Dawley. As to the method:
Primary rat hepatocytes (PRH) were purchased from Invitrogen (Paisley, UK), isolated from male Sprague–Dawley rats at 9 weeks old (Lot. RS745). Cryopreserved PRH were thawed in a 37°C water bath for approximately 2 min until contents were around 90% thawed. Once thawed, the hepatocytes were added to 50 mL of prewarmed plating media (William's E media without phenol red supplemented with 5% FBS, 1 μmol/L dexamethasone, 1% solution of penicillin/streptomycin, 4 μg/mL bovine insulin, 2 mmol/L GlutaMAX™, and 15 mmol/L HEPES (CHRM® supplement A), and centrifuged for 3 min at 55g at 18°C and the supernatant fraction discarded. The hepatocytes were then resuspended in plating media at 1 × 10^6 cells per ml density.
(§1) Standard MTT assays were performed on HepG2 and PRH cells to measure cell viability. 2 × 10^4 cells per well of HepG2 were seeded into 96‐well plates in DMEM with 10% FBS and left overnight in a 37°C humidified incubator to allow cells to adhere to the plate. PRH were seeded in collagen coated 96‐well plates at a density of 2 × 10^4 cells per well. Old media was removed and replaced with 0–300 μmol/L of protein synthesis inhibitors and incubated for 72 h. A vehicle control and control with no drug was included. A quantity of 20 μL of 5 mg/mL […] in HBSS was added to each well and incubated for 2 h. A quantity of 100 μL lysis buffer (50% v/v dimethylformahyde and 20% v/v sodium dodecyl sulphate) was added to each well and the plate was incubated overnight at 37°C. The absorbance was quantified at 570 nm by a Tecan GENios micoplate reader (Germany).
(§2) Cycloheximide was incubated at 0–300 μmol/L and emetine at 0–30 μmol/L for both leucine incorporation and MTT assays.
(§3) The IC50 (concentration causing 50% protein synthesis inhibition), CC50 (concentration causing 50% cell viability), and CC10 (concentration causing 90% cell viability) were calculated by nonlinear regression of drug concentration versus leucine incorporation and MTT concentration–response graphs, respectively, using Graphpad Prism 3 software. The IC50 and CC50 values derived from the single inhibitor analyses were used for subsequent fixed‐ratio isobologram two‐drug combination analyses.
For orientation: Tetrazolium dyes change colour on reduction, which living cells bring about.

The subject of series [2] is HepG2 cells. Description: Standard MTT cell viability assay in HepG2 cells. The settings on record: 72 h. It counts as cell-based, human. As to the method: as §1, §2, §3
A short description of series [3]: Standard MTT cell viability assay in HepG2 cells. In kind it is cell-based, human. The settings on record: human. The protocol: as §1, §2, §3
Series [4] concerns primary rat hepatocytes (PRH). Description: [3H]-leucine incorporation protein synthesis inhibition assay in primary rat hepatocytes. The settings on record: Hepatocyte, 72 h, read-out: IC50 protein synthesis inhibition. In kind it is cell-based.
The subject of series [5] is HeLa cells. The settings on record: cited from earlier work.
Series [6] concerns HepG2 cells. Nature of the series: [3H]-leucine incorporation protein synthesis inhibition assay in HepG2 cells. In kind it is cell-based. The settings on record: Homo sapiens, read-out: IC50 protein synthesis inhibition.
The subject of series [7] is Huh‐7 cells. The settings on record: at 10 μmol/L in Huh‐7 cells; ref Yin Low et al. (2009); cited from earlier work.
In series [8] the test system is HeLa cells. Details: method as in Dudani et al. (1988). The settings on record: at 0.9 mmol/L in HeLa cells; ref Dudani et al. (1988); cited from earlier work.
[9] abbreviates: PRH, 72 h, single inhibitor, MTT, mean ± SD, read-out: CC50 cytotoxicity (50% cell viability).
The mark [10] stands for this setting: HepG2 cells, single inhibitor, MTT.
[11] abbreviates: HepG2 cells, 72 h, single inhibitor, MTT, mean ± SD, read-out: CC50 cytotoxicity (50% cell viability).

For `Cc1c2oc3c(C)ccc(C(=O)N[C@@H]4C(=O)N[C@H](C(C)C)C(=O)N5CCC[C@H]5C(=O)N(C)CC(=O)N(C)[C@@H](C(C)C)C(=O)O[C@@H]4C)c3nc-2c(C(=O)N[C@@H]2C(=O)N[C@H](C(C)C)C(=O)N3CCC[C@H]3C(=O)N(C)CC(=O)N(C)[C@@H](C(C)C)C(=O)O[C@@H]2C)c(N)c1=O` [actinomycin D] (I: T[dV]P[Sar][NMeV] / II: T[dV]P[Sar][NMeV]; ester I:1-I:C, II:1-II:C; linker I:N-II:N via Actinocin(9to1)), the CC50 (in general, the concentration giving 50% cytotoxicity) at 72 h is 0.00098 ± 0.0018 µM in series [1] (setting [9]) and 0.0062 ± 0.0073 µM in series [3] (setting [11]). Also, the “CC10 (90% cell viability concentration)” value in series [2] (setting [10]) worked out at 0.00017 µM. The IC50 – broadly, the concentration that gives 50% inhibition – worked out at 0.0017 ± 0.0018 µM in series [4] and 0.039 ± 0.0074 µM in series [6] (HepG2, 72 h). In addition, the “concentration sufficient to cause cell toxicity” value in series [5] (HeLa cells, ref Sawicki and Godman (1971)) was 0.08 µM.
For `C[C@@H]1C[C@@H]([C@H](O)CC2CC(=O)NC(=O)C2)C(=O)[C@@H](C)C1` [cycloheximide], the results for the CC50 at 72 h in series [1] (setting [9]) and in series [3] (setting [11]) were 0.68 ± 1.3 µM and 0.57 ± 0.51 µM, respectively. Moreover, the “CC10 (90% cell viability concentration)” value in series [2] (setting [10]) is 0.024 µM. Also, the IC50 worked out at 0.29 ± 0.09 µM in series [4] and 6.6 ± 2.5 µM in series [6] (HepG2, 72 h).
For the compound `CC[C@H]1CN2CCc3cc(OC)c(OC)cc3[C@@H]2C[C@@H]1C[C@H]1NCCc2cc(OC)c(OC)cc21` [emetine, emetine dihydrochloride hydrate], the CC50 at 72 h in series [1] (setting [9]) was 0.18 µM; in series [3] (setting [11]), 0.081 ± 0.009 µM. The cell viability result in series [7] was “over 90%”. Also, the “CC10 (90% cell viability concentration)” value in series [2] (setting [10]) came to 0.007 µM. Also, the IC50 amounted to 0.62 ± 0.92 µM in series [4] and 2.2 ± 1.4 µM in series [6] (HepG2, 72 h).
Turning to `COc1ccc(C[C@H](N)C(=O)N[C@H]2[C@@H](O)[C@H](n3cnc4c(N(C)C)ncnc43)O[C@@H]2CO)cc1` [puromycin, puromycin dihydrochloride], the values for the CC50 at 72 h in series [1] and in series [3] were 1.6 ± 1 µM and 1.3 ± 0.064 µM, respectively. In addition, in series [2] (human), the “CC10 (90% cell viability concentration)” value was 0.11 µM. Moreover, the IC50 in series [4] (PRH, single inhibitor, mean ± SD) amounted to 2 ± 2 µM; in series [6] (HepG2 cells, 72 h, single inhibitor, mean ± SD), 1.6 ± 1.2 µM. Also, the concentration causing cytotoxicity in series [5] (human cell lines, including HeLa cells, ref Dudani et al. (1988)) was 0.9 µM. The protein synthesis inhibition in series [8] was 79.6%.
